# From PMC8159961, “Exploring protein hotspots by optimized fragment pharmacophores” (Nature Communications, 2021)
# Values joined by “and” are separate entries in the source; they are usually repeats but may differ in a detail not shown here. Equal values may be shown once. Read-outs that look alike come from different tables or passages of the source.
# What was measured:
# human 5-HT1A receptor = molecular target: T1, human 5-HT1A receptor (Homo sapiens, UniProt P08908); assay: GPCR radioligand binding assay, [3H]-8-OH-DPAT displacement, HEK293 membranes
# T1 construct: expressed in transfected cells
# T1 sequence (P08908 1-422): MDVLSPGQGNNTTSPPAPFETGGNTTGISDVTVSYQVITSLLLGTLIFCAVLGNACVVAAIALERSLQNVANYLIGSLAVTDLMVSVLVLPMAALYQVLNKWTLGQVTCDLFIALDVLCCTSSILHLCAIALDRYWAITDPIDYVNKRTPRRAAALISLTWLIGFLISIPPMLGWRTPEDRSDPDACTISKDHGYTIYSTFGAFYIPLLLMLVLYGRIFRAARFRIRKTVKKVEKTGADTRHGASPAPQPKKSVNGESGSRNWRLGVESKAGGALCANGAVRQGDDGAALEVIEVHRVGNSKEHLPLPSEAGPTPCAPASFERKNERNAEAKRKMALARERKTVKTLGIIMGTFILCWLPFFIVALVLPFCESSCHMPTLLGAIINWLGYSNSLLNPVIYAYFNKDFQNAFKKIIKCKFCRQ
# human 5-HT6 receptor = molecular target: T2, human 5-HT6 receptor (Homo sapiens, UniProt P50406); assay: GPCR radioligand binding assay, [3H]-LSD displacement, HEK293 membranes
# T2 construct: expressed in transfected cells
# T2 sequence (P50406 whole entry): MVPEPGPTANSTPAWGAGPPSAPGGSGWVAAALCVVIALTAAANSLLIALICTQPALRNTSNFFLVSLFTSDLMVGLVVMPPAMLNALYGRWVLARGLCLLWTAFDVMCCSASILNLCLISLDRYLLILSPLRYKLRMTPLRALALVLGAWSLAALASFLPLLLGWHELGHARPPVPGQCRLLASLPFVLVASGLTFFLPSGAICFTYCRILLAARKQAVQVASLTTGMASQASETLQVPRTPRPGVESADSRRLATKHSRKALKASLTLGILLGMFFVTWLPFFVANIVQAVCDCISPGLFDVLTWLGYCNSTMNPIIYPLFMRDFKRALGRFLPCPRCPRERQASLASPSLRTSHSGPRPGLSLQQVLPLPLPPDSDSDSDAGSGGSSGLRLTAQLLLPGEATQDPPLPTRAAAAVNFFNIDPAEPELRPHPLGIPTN
# human 5-HT7b receptor = molecular target: T3, human 5-HT7b receptor (Homo sapiens, UniProt P34969); assay: GPCR radioligand binding assay, [3H]-5-CT displacement, HEK293 membranes
# T3 construct: expressed in transfected cells
# T3 sequence (P34969 1-432): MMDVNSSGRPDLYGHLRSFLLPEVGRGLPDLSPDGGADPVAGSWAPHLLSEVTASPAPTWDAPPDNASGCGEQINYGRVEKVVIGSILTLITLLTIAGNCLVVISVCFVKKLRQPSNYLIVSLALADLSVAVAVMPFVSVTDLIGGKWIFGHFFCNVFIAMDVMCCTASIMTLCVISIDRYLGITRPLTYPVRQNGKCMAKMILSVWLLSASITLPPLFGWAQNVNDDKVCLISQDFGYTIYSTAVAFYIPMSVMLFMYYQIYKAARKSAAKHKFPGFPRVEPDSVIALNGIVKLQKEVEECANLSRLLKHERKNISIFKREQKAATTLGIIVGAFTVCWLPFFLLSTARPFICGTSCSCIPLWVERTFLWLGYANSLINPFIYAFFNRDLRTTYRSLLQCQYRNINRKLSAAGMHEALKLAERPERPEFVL
# bovine factor Xa = molecular target: T4, bovine factor Xa (Bos taurus, UniProt P00743); assay: Protease inhibitory assay, chromogenic substrate S-2222; type: biochemical; settings: for vinit: replicate values
# T4 construct: bovine factor Xa, Chromogenix, 2 nkat/mL; purchased Chromogenix
# T4 sequence (P00743 234-492 limits assumed): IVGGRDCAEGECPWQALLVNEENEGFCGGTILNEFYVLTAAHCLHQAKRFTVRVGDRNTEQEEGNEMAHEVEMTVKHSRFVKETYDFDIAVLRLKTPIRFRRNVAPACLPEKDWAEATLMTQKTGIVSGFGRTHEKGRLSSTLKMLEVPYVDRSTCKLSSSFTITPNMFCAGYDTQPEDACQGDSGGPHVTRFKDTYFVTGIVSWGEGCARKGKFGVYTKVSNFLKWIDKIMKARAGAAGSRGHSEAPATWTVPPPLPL
# T4 sequence (P00743 41-180 partner limits assumed): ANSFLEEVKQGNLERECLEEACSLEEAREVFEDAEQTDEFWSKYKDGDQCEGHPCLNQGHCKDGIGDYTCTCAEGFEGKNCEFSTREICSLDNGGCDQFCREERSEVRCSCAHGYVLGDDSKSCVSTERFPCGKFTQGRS
# human thrombin = molecular target: T5, human thrombin (Homo sapiens, UniProt P00734); assay: Protease inhibitory assay, chromogenic substrate S-2238; type: biochemical; settings: for vinit: replicate values
# T5 construct: human thrombin; purchased Sigma-Aldrich
# [1] = 10 µM, read-out: 5-HT1A % Inhibition by plate position
# [2] = 5-HT1A, average of exp_1 and exp_2, read-out: %inh 5-HT1A average
# [3] = 5-HT1A, average, values below 0 and above 100% were set as 0 and 100, read-out: %inh 5-HT1A corrected*
# [4] = 5-HT1A, replicate exp_1, read-out: %inh 5-HT1A exp_1
# [5] = 5-HT1A, replicate exp_2, read-out: %inh 5-HT1A exp_2
# [6] = 10 µM, read-out: 5-HT6 % Inhibition by plate position
# [7] = 5-HT6, average of exp_1 and exp_2, read-out: %inh 5-HT6 average
# [8] = 5-HT6, average, values below 0 and above 100% were set as 0 and 100, read-out: %inh 5-HT6 corrected*
# [9] = 5-HT6, replicate exp_1, read-out: %inh 5-HT6 exp_1
# [10] = 5-HT6, replicate exp_2, read-out: %inh 5-HT6 exp_2
# [11] = 10 µM, read-out: 5-HT7 % Inhibition by plate position
# [12] = 5-HT7, average of exp_1 and exp_2, read-out: %inh 5-HT7 average
# [13] = 5-HT7, average, values below 0 and above 100% were set as 0 and 100, read-out: %inh 5-HT7 corrected*
# [14] = 5-HT7, replicate exp_1, read-out: %inh 5-HT7 exp_1
# [15] = 5-HT7, replicate exp_2, read-out: %inh 5-HT7 exp_2
# [16] = plate layout, label = plate position, Cheng-Prusoff, Km 2.6 µM, read-out: Thrombin Ki
# [17] = Thrombin primary screening, substrate 40 µM, cmpd conc 500 µM
# [18] = FactorXa Ki determination, substrate 100 µM, cmpd conc 200 µM
# [19] = FactorXa Ki determination, substrate 200 µM, cmpd conc 200 µM
# [20] = FactorXa primary screening, substrate 100 µM, cmpd conc 200 µM
# [21] = FactorXa, substrate 100 µM, cmpd conc 200 µM, one of two values averaged in Supplementary Data 1, read-out: Ki
# [22] = FactorXa, substrate 200 µM, cmpd conc 200 µM, one of two values averaged in Supplementary Data 1, read-out: Ki
# [23] = Thrombin Ki determination, substrate 20 µM, cmpd conc 200 µM
# [24] = Thrombin Ki determination, substrate 40 µM, cmpd conc 200 µM
Compound,inhibition at 10 µM (human 5-HT1A receptor; [1]) [%],inhibition at 10 µM (human 5-HT1A receptor; [2]) [%],inhibition at 10 µM (human 5-HT1A receptor; [3]) [%],inhibition at 10 µM (human 5-HT1A receptor; [4]) [%],inhibition at 10 µM (human 5-HT1A receptor; [5]) [%],inhibition at 10 µM (human 5-HT6 receptor; [6]) [%],inhibition at 10 µM (human 5-HT6 receptor; [7]) [%],inhibition at 10 µM (human 5-HT6 receptor; [8]) [%],inhibition at 10 µM (human 5-HT6 receptor; [9]) [%],inhibition at 10 µM (human 5-HT6 receptor; [10]) [%],inhibition at 10 µM (human 5-HT7b receptor; [11]) [%],inhibition at 10 µM (human 5-HT7b receptor; [12]) [%],inhibition at 10 µM (human 5-HT7b receptor; [13]) [%],inhibition at 10 µM (human 5-HT7b receptor; [14]) [%],inhibition at 10 µM (human 5-HT7b receptor; [15]) [%],V0 / Vi (human thrombin; [17]),vinit (human thrombin; [17]),V0 / Vi (bovine factor Xa; [20]),vinit (bovine factor Xa; [20]),further results
COc1ccccc1CC1CCNCC1 [B12],,,,,,,,,,,,,,,,,,,,inhibition at 10 µM (human 5-HT1A receptor; read-out: 5-HT1A % Inhibition by plate position): 50%; inhibition at 10 µM (human 5-HT1A receptor; read-out: %inh 5-HT1A average): 50%; inhibition at 10 µM (human 5-HT1A receptor; read-out: %inh 5-HT1A corrected*): 50%; inhibition at 10 µM (human 5-HT1A receptor; read-out: %inh 5-HT1A exp_1): 52%; inhibition at 10 µM (human 5-HT1A receptor; read-out: %inh 5-HT1A exp_2): 48%; inhibition at 10 µM (human 5-HT6 receptor; read-out: 5-HT6 % Inhibition by plate position): 76%; inhibition at 10 µM (human 5-HT6 receptor; read-out: %inh 5-HT6 average): 76%; inhibition at 10 µM (human 5-HT6 receptor; read-out: %inh 5-HT6 corrected*): 76%; inhibition at 10 µM (human 5-HT6 receptor; read-out: %inh 5-HT6 exp_1): 84%; inhibition at 10 µM (human 5-HT6 receptor; read-out: %inh 5-HT6 exp_2): 68%; inhibition at 10 µM (human 5-HT7b receptor; read-out: 5-HT7 % Inhibition by plate position): 54%; inhibition at 10 µM (human 5-HT7b receptor; read-out: %inh 5-HT7 average): 54%; inhibition at 10 µM (human 5-HT7b receptor; read-out: %inh 5-HT7 corrected*): 54%; inhibition at 10 µM (human 5-HT7b receptor; read-out: %inh 5-HT7 exp_1): 45%; inhibition at 10 µM (human 5-HT7b receptor; read-out: %inh 5-HT7 exp_2): 63%; Ki (bovine factor Xa): 401 µM
Nc1nnc(-c2cccs2)[nH]1 [D3],0.863,0.863,0.863,1.73,0,52,52,52,52,53,0,-1.67,0,1.55,-5,,,,,Ki (human thrombin; [16]): 181 µM
c1ccc(Nc2nncs2)cc1 [D8],0,-2.41,0,-10,5.56,1.55,1.55,1.55,9,-6,0,-12,0,-3.33,-21,,,,,"Ki (bovine factor Xa; plate layout, label = plate position, Cheng-Prusoff, Km 164 µM, read-out: Factor Xa Ki): 733 µM"
O=C(O)C1CCN(c2ncccn2)CC1 [E9],3,3,3,11,-4.35,29,29,29,32,26,0,-8.55,0,3.77,-21,,,,,Ki (human thrombin; [16]): 76 µM
O=C(c1ccccc1F)N1CCNCC1 [E12],15,15,15,13,17,17,17,17,12,22,0,-6,0,-4.53,-8,,,,,Ki (bovine factor Xa): 510 µM
O=C(O)c1cnc(-c2ccccc2)s1 [F3],2.52,2.52,2.52,-2.47,7.5,41,41,41,48,34,0,-18,0,-6,-31,,,,,Ki (human thrombin; [16]): 271 µM
O=C1NC(=O)/C(=C\c2cccs2)N1 [H12],3.44,3.44,3.44,7,-0.195,32,32,32,31,32,3.77,3.77,3.77,6,1.68,,,,,Ki (bovine factor Xa): 466 µM
Cc1cc2ccccc2nc1N [SX-A1],,,,,,,,,,,,,,,,0.95,30.291 and 31.236,1.83,9.345 and 9.782,"V0 / Vi (bovine factor Xa; [18]): 1.84; vinit, avrg. (bovine factor Xa; [18]): 8.852; vinit (bovine factor Xa; [18]): 8.688 and 8.852 and 9.02; V0 / Vi (bovine factor Xa; [19]): 1.59; vinit (bovine factor Xa; [19]): 22.63 and 23.206 and 22.86; Ki (bovine factor Xa; [21]): 148 µM; Ki (bovine factor Xa; [22]): 152 µM"
c1cnc2cccnc2c1 [SX-A2],,,,,,,,,,,,,,,,1.13,26.327 and 25.6,1.03,17.164 and 16.836,"V0 / Vi (human thrombin; [23]): 1.14; vinit, avrg. (human thrombin; [23]): 23.193; vinit (human thrombin; [23]): 23.633 and 22.973 and 22.97; V0 / Vi (human thrombin; [24]): 1.07; vinit, avrg. (human thrombin; [24]): 31.452; vinit (human thrombin; [24]): 33.054 and 31.27 and 30.03; Ki (human thrombin; Thrombin, substrate 20 µM, cmpd conc 200 µM, one of two values averaged in Supplementary Data 1, read-out: Ki): 160 µM; Ki (human thrombin; Thrombin, substrate 40 µM, cmpd conc 200 µM, one of two values averaged in Supplementary Data 1, read-out: Ki): 166 µM"
c1cnc2ncccc2c1 [SX-A3],,,,,,,,,,,,,,,,1.00,28.545 and 30.364,0.96,18.873 and 17.673,
c1ccc2[nH]ccc2c1 [SX-A4],,,,,,,,,,,,,,,,0.97,31.418 and 30.036,1.05,15.929 and 16.714,
Nc1nnc2ccccn12 [SX-A5],,,,,,,,,,,,,,,,0.99,30.873 and 29.418,0.96,17.929,
Cn1c(N)nc2ccccc21 [SX-A6],,,,,,,,,,,,,,,,0.93,31.891 and 32.182,1.45,10.544 and 13.214,"V0 / Vi (bovine factor Xa; [18]): 1.48; vinit, avrg. (bovine factor Xa; [18]): 10.970; vinit (bovine factor Xa; [18]): 10.624 and 11.848 and 10.44; V0 / Vi (bovine factor Xa; [19]): 1.30; vinit (bovine factor Xa; [19]): 28.578 and 28.05 and 27.32; Ki (bovine factor Xa; [21]): 257 µM; Ki (bovine factor Xa; [22]): 297 µM"
Cc1nc(-c2ccccc2)cs1 [SX-A7],,,,,,,,,,,,,,,,0.97,32.618 and 31.345,0.98,17.782 and 18.8,
Cc1cc(-c2ccccc2)n[nH]1 [SX-A8],,,,,,,,,,,,,,,,0.97,32.036 and 32.145,0.98,19.236 and 17.164,
Brc1ccc(-c2ccon2)cc1 [SX-A9],,,,,,,,,,,,,,,,0.98,30.873 and 32.327,0.98,19.055 and 17.6,
COc1ccccc1N1CCNCC1 [SX-A10],,,,,,,,,,,,,,,,0.96,33.236 and 32.218,0.98,14.286 and 15.286,
COc1ccccc1C1CCNCC1 [SX-A11],,,,,,,,,,,,,,,,0.93,35.636 and 31.927,0.86,16.916 and 16.512,
Oc1ccccc1N1CCCCC1 [SX-A12],,,,,,,,,,,,,,,,0.93,34.073 and 33.6,1.24,11.714 and 11.643,"V0 / Vi (bovine factor Xa; [18]): 1.21; vinit, avrg. (bovine factor Xa; [18]): 13.477; vinit (bovine factor Xa; [18]): 13.208 and 13.684 and 13.54; V0 / Vi (bovine factor Xa; [19]): 1.14; vinit (bovine factor Xa; [19]): 30.42 and 30.848 and 34.37; Ki (bovine factor Xa; [21]): 597 µM; Ki (bovine factor Xa; [22]): 625 µM"
CS(=O)(=O)c1ccc(N2CCNCC2)cc1 [SX-B1],,,,,,,,,,,,,,,,,29.818 and 32,,18 and 19.091,
